What was measured:
[1] = test system: Salmonella typhimurium TA98 strain, TA100 strain; assay: Test Example 7: FAT test (mutagenicity); set-up: key: (−) means that mutagenicity is negative; (+) is positive; details: TA98 and TA100 strains, non-metabolism activating and metabolism activating conditions
Description: Mutagenicity of a compound of the present invention was evaluated.
[…] of freezing-stored rat typhoid bacillus (Salmonella typhimurium TA98 strain, TA100 strain) was inoculated on 10 mL of a liquid nutrient medium (2.5% Oxoid nutrient broth No. 2), and this was cultured before shaking at 37° C. for 10 hours. 9 mL of a bacterial solution of the TA98 strain was centrifuged (2000×g, 10 minutes) to remove a culturing solution. The bacteria was suspended in 9 mL of a Micro F buffer (K2HPO4: 3.5 g/L, KH2PO4: 1 g/L, (NH4)2SO4: 1 g/L, trisodium citrate dehydrate: 0.25 g/L, MgSO4*7H2O: 0.1 g/L), the suspension was added to 110 mL of an Exposure medium (Micro F buffer containing Biotin: 8 μg/mL, histidine: 0.2 μg/mL, glucose: 8 mg/mL). The TA100 strain was added to 120 mL of the Exposure medium relative to 3.16 mL of the bacterial solution to prepare a test bacterial solution. […] Since a well containing a bacterium which has obtained the proliferation ability by mutation of an amino acid (histidine) synthesizing enzyme gene turns from purple to yellow due to a pH change, the bacterium proliferation well which has turned to yellow in 48 wells per dose was counted, and was assessed by comparing with a negative control group. […]

[2] = target: T1, CYP3A4 enzyme expressed in Escherichia coli (Homo sapiens, UniProt P08684); assay: Test Example 5: CYP3A4 fluorescent MBI test; type: in vitro ADME; details: substrate 7-BFC, pre-reaction 30 minutes, compound 0.625-20 μmol/L
T1 construct: host or cells: Escherichia coli
Description: CYP3A4 Fluorescent MBI Test
The CYP3A4 fluorescent MBI test is a test of investigating enhancement of CYP3A4 inhibition of a compound of the present invention by a metabolism reaction, and the test was performed using, as CYP3A4 enzyme expressed in Esherichia coli and employing, as an index, a reaction in which 7-benzyloxytrifluoromethylchmarin (7-BFC) is debenzylated by the CYP3A4 enzyme to produce a metabolite, 7-hydroxytrifluoromethylchmarin (HFC) emitting fluorescent light.
The reaction conditions were as follows: substrate, 5.6 μmol/L 7-BFC; pre-reaction time, […] or 30 minutes; reaction time, 15 minutes; reaction temperature, 25° C. […]
An enzyme in a K-Pi buffer (pH 7.4) and a solution of the compound of the present invention as a pre-reaction solution were added to a 96-well plate at the above composition of the pre-reaction. […] For the plate on which each index reaction had been performed, a fluorescent value of 7-HFC which is a metabolite was measured with a fluorescent plate reader. […]
Addition of only DMSO which is a solvent dissolving the compound of the present invention to a reaction system was adopted as a control (100%). Remaining activity (%) was calculated at each concentration of the compound of the present invention added as the solution, and IC50 was calculated by reverse-presumption by a logistic model using a concentration and an inhibition rate. […]

[3] = target: T2, human TRPV4 (hTRPV4/CHO cells) (Homo sapiens, UniProt Q9HBA0); assay: Test Example 1: TRPV4 inhibitory activity (IC50 value), 4α-PDD stimulation, Fluo4 calcium fluorescence (FLIPR TETRA); type: cell-based; details: Test Example 1, 4α-PDD stimulation, read-out: Test 1 IC50
T2 construct: expressed in transfected cells; host or cells: CHO-K1

[4] = Test Example 11: BA test (oral absorbability); type: in vivo; details: plasma; Mouse, oral administration 1 mg/kg
Description: Materials and methods for experiments to evaluate oral absorbability
(1) Experimental animals: rats or mice were used. (2) Breeding condition: rats or mice were allowed free access to solid feed and sterilized tap water (3) Setting of dosage and grouping: Oral administration and intravenous administration were performed with the predetermined dosage. Grouping was set as below. (Dosage varied depending on each compound)
Oral administration 1 to 30 mg/kg (n=2 to 3)
Intravenous administration 0.5 to 10 mg/kg (n=2 to 3)
(4) Preparation of administered liquid: Oral administration was performed using a solution or a suspension. Intravenous administration was performed after solubilization. (5) Method of Administration: In oral administration, compulsory administration to the stomach was conducted using an oral sonde. […] (6) Evaluation items: Blood was chronologically collected, and then concentration of a compound of the present invention in blood plasma was measured using a LC/MS/MS. […]
(7) Statistical analysis: With regard to a shift in plasma concentration of the compound of the present invention, the area under the plasma concentration-time curve (AUC) was calculated using a nonlinear least-squares program, WinNonlin (a registered trademark). Bioavailability (BA) was calculated from the AUCs of the oral administration group and the intravenous administration group. […]

T1 sequence (P08684 whole entry): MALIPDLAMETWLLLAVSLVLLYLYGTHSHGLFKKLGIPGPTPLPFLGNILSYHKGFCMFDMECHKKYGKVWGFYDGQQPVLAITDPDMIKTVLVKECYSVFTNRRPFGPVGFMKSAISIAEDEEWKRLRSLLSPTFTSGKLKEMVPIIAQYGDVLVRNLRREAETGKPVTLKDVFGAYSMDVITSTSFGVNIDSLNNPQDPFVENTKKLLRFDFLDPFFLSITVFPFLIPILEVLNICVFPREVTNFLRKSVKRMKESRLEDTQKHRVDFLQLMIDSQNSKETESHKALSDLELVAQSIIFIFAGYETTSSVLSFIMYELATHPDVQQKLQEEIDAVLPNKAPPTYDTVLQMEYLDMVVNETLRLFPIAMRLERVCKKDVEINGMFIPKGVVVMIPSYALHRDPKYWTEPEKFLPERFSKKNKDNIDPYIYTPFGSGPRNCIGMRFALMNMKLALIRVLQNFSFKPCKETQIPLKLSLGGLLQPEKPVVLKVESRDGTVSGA
T2 sequence (Q9HBA0 whole entry): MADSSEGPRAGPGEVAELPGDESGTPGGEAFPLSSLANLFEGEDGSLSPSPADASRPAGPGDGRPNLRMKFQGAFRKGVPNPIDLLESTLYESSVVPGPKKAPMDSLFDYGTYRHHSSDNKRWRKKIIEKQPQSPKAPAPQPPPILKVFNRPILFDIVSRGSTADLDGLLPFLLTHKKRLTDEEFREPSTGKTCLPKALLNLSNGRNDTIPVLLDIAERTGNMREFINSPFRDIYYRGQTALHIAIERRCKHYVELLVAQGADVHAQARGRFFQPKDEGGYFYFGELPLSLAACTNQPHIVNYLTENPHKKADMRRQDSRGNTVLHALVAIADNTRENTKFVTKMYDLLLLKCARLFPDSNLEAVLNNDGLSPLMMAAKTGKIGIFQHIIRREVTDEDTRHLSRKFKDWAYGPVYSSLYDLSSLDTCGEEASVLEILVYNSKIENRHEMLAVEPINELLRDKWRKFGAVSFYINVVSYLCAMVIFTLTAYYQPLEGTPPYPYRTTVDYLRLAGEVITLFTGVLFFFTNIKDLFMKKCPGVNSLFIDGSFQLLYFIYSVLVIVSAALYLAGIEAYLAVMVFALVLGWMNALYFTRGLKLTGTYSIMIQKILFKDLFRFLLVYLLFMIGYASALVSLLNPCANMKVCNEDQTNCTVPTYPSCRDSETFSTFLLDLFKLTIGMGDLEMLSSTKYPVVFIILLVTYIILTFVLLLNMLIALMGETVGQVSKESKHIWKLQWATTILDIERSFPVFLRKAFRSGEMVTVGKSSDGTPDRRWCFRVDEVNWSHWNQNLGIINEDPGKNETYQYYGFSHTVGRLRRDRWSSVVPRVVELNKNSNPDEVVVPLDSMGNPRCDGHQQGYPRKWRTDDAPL

## Cc1nc(CO)sc1-c1csc(NC(=O)Cn2cc(Cl)cn2)n1 [Compound I-131]
[1]
  Mutagenicity (FAT test): (−)
[2]
  CYP3A4 fluorescent MBI test: difference between IC50 values without and with preincubation: (−) (when the difference is 3 μM or less, this was defined as (−))
[3]
  IC50: 100 to 1000 nM
[4]
  bioavailability: 61.4%

— patent publication US20170066759A1, “AROMATIC 5-MEMBERED HETEROCYCLIC DERIVATIVE HAVING TRPV4-INHIBITING ACTIVITY” (Shionogi & Co., Ltd., priority 2012, published 2017)
